Results on five compounds are retold here after patent publication US9980943B2, “Methods of treating muscular dystrophy” (BOARD OF REGENTS OF THE NEVADA SYSTEM OF HIGHER EDUCATION, …, priority 2013, dated 2018).

Holding throughout (assay type): cell-based, mouse
Experiment [1] deals with α7 integrin (LacZ reporter in α7βgal+/− myoblasts). Briefly: Myoblast α7+/LacZ integrin FDG assay (Burkin assay in myoblasts, 96-well). The note with it: 96-well; for Burkin Assay in Myoblasts, signal relative to DMSO: α7+/LacZ myoblasts; for Burkin Assay in Myoblasts, value relative to DMSO: SU9516 analogs, N=3-6.
In experiment [2] the test system is α7 integrin (LacZ reporter in α7+/LacZ myotubes). In words: Myotube α7 integrin FDG assay (Burkin assay in myotubes, 96-well). The note with it: for Burkin Assay in Myotubes, value relative to DMSO: SU9516 analogs, 96-well, N=3-6.
For experiment [3], the system named is β-galactosidase in CMV-LacZ C2C12 myoblasts. In words: CMV-LacZ secondary screen in C2C12 myoblasts (β-Gal stabilizing assay). Particulars: for CMV-LACZ in Myoblasts (β-galactosidase activity relative to DMSO): CMV-LacZ C2C12 myoblasts; for CMV-LACZ in Myoblasts, value relative to DMSO: SU9516 analogs, C2C12 CMV-LacZ, N=2. The procedure, abridged: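 Dose-response runs at 0.5–40 μM (0.5, 1, 5, 10, 20, 40 μM; N=2 per point) used a clonal C2C12 line carrying CMV-LacZ. Cells were assayed as myoblasts or as differentiated myotubes, and β-galactosidase levels were read with the FDG fluorogenic substrate.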

Experiment [4] deals with β-galactosidase in CMV-LacZ C2C12 myotubes. Briefly: CMV-LacZ secondary screen in C2C12 myotubes (β-Gal stabilizing assay). Particulars: for CMV-LACZ in Myotubes, signal relative to DMSO: C2C12 CMV-LacZ myotubes, fold relative to DMSO; for CMV-LACZ in Myotubes, value relative to DMSO: SU9516 analogs, C2C12 CMV-LacZ, N=2. In a few lines: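 β-gal stabilization was measured in C2C12 myoblasts or myotubes stably transfected with a CMV-driven LacZ construct, using the FDG β-gal assay. Compounds were tested in dose-response at 0.5, 1, 5, 10, 20 and 40 μM, with two replicates per point.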

With `CCOC(=O)c1cc(C(=O)OCC)c(=O)[nH]c1SCc1ccccc1` [MLS001008109-01], the “Burkin Assay in Myoblasts, signal relative to DMSO” value in experiment [1] (0.5 uM) is given as 0.8481; in experiment [1] (1 uM), 0.78; in experiment [1] (5 uM) it was 1.002; in experiment [1] (10 uM) it was 0.8626; in experiment [1] (20 uM), 0.826; in experiment [1] (40 uM), 0.8306. For the same compound, the “Burkin Assay in Myotubes, α7 integrin LacZ reporter signal relative to DMSO” value in experiment [2] (0.5 uM) amounted to 0.9247; in experiment [2] (1 uM) it was 0.9146; in experiment [2] (5 uM) it was 1.182; in experiment [2] (10 uM), 0.9335; in experiment [2] (20 uM) it was 0.8264; in experiment [2] (40 uM) it was 0.6103. The “CMV-LACZ in Myoblasts (β-galactosidase activity relative to DMSO)” value was 0.9542 in experiment [3] (0.5 uM); 1.1138 in experiment [3] (1 uM); 0.9228 in experiment [3] (5 uM); 1.2178 in experiment [3] (10 uM); 0.8730 in experiment [3] (20 uM); 0.7619 in experiment [3] (40 uM). For the same compound, the “CMV-LACZ in Myotubes, signal relative to DMSO” value in experiment [4] (0.5 uM) was found to be 1.0621; in experiment [4] (1 uM), 1.0168; in experiment [4] (5 uM), 0.9839; in experiment [4] (10 uM) it was 0.9289; in experiment [4] (20 uM), 1.0756; in experiment [4] (40 uM), 1.0600.
Regarding `N#C/C(=C/c1ccc(N2CCOCC2)o1)C(=O)Nc1ccccc1` [MLS000689218-01], the “Burkin Assay in Myoblasts, signal relative to DMSO” value in experiment [1] (0.5 uM) is recorded as 1.068; in experiment [1] (1 uM) it was 1.171; in experiment [1] (5 uM) it was 1.132; in experiment [1] (10 uM), 1.051; in experiment [1] (20 uM), 1.07; in experiment [1] (40 uM) it was 1.037. Further, the “Burkin Assay in Myotubes, α7 integrin LacZ reporter signal relative to DMSO” value in experiment [2] (0.5 uM) was determined as 0.9663; in experiment [2] (1 uM), 1.083; in experiment [2] (5 uM), 0.97; in experiment [2] (10 uM), 0.9829; in experiment [2] (20 uM), 1.008; in experiment [2] (40 uM) it was 0.9676. In addition, the “CMV-LACZ in Myoblasts (β-galactosidase activity relative to DMSO)” value in experiment [3] (0.5 uM) amounted to 1.1977; in experiment [3] (1 uM) it was 1.2273; in experiment [3] (5 uM), 0.8689; in experiment [3] (10 uM) it was 1.0813; in experiment [3] (20 uM), 1.2835; in experiment [3] (40 uM), 1.6337. The “CMV-LACZ in Myotubes, signal relative to DMSO” value came out at 0.9657 in experiment [4] (0.5 uM); 0.9514 in experiment [4] (1 uM); 1.3684 in experiment [4] (5 uM); 1.2135 in experiment [4] (10 uM); 1.4900 in experiment [4] (20 uM); 1.7990 in experiment [4] (40 uM).
Regarding `Cc1ccc(NS(=O)(=O)c2cccc(C(=O)O)c2)cc1S(=O)(=O)N1CCOCC1` [MLS000393966-01], the “Burkin Assay in Myoblasts, signal relative to DMSO” value in experiment [1] (0.5 uM) was 0.9495; in experiment [1] (1 uM) it was 0.9626; in experiment [1] (5 uM) it was 1.793; in experiment [1] (10 uM) it was 1.076; in experiment [1] (20 uM), 0.9904; in experiment [1] (40 uM), 0.965. The “Burkin Assay in Myotubes, α7 integrin LacZ reporter signal relative to DMSO” value was 0.8547 in experiment [2] (0.5 uM); 0.8436 in experiment [2] (1 uM); 1.304 in experiment [2] (5 uM); 0.9546 in experiment [2] (10 uM); 1.233 in experiment [2] (20 uM); 1.015 in experiment [2] (40 uM). The “CMV-LACZ in Myoblasts (β-galactosidase activity relative to DMSO)” value is listed as 0.9249 in experiment [3] (0.5 uM); 1.0625 in experiment [3] (1 uM); 1.1744 in experiment [3] (5 uM); 0.8087 in experiment [3] (10 uM); 1.0411 in experiment [3] (20 uM); 0.9156 in experiment [3] (40 uM). Moreover, the “CMV-LACZ in Myotubes, signal relative to DMSO” value in experiment [4] (0.5 uM) was 0.9358; in experiment [4] (1 uM), 1.3516; in experiment [4] (5 uM), 0.8958; in experiment [4] (10 uM), 1.1877; in experiment [4] (20 uM) it was 1.0378; in experiment [4] (40 uM) it was 1.1167.
Consider `COc1ccc(C(=O)/C=C2/C(=O)Nc3ccccc32)cc1` [MLS001163848-01], for which the “Burkin Assay in Myoblasts, value relative to DMSO” value in experiment [1] (0.5 uM) is reported as 1.002; in experiment [1] (1 uM), 0.8906; in experiment [1] (5 uM), 0.4854; in experiment [1] (10 uM), 0.3141; in experiment [1] (20 uM) it was 0.297; in experiment [1] (40 uM), 0.1444. For the same compound, the “Burkin Assay in Myotubes, value relative to DMSO” value in experiment [2] (0.5 uM) is 1.0964; in experiment [2] (1 uM) it was 1.045; in experiment [2] (5 uM), 0.9587; in experiment [2] (10 uM), 0.7469; in experiment [2] (20 uM), 0.6878; in experiment [2] (40 uM), 0.4876. The “CMV-LACZ in Myoblasts, value relative to DMSO” value was 1.1146 in experiment [3] (0.5 uM); 0.9620 in experiment [3] (1 uM); 0.9336 in experiment [3] (5 uM); 1.0762 in experiment [3] (10 uM); 2.1030 in experiment [3] (20 uM); 2.2215 in experiment [3] (40 uM). Moreover, the “CMV-LACZ in Myotubes, value relative to DMSO” value in experiment [4] (0.5 uM) was found to be 1.2133; in experiment [4] (1 uM), 0.9638; in experiment [4] (5 uM), 1.1937; in experiment [4] (10 uM) it was 4.2586; in experiment [4] (20 uM), 6.7729; in experiment [4] (40 uM) it was 6.8624.
Take `N#C/C(=C1/C(=O)Nc2ccc(Br)cc21)c1ccccn1` [MLS001013431-01]: the “Burkin Assay in Myoblasts, value relative to DMSO” value in experiment [1] (0.5 uM) is 1.202; in experiment [1] (1 uM), 1; in experiment [1] (5 uM) it was 0.7077; in experiment [1] (10 uM) it was 0.5311; in experiment [1] (20 uM) it was 0.4522; in experiment [1] (40 uM), 0.3362. Further, the “Burkin Assay in Myotubes, value relative to DMSO” value in experiment [2] (0.5 uM) worked out at 1.238; in experiment [2] (1 uM), 1.0097; in experiment [2] (5 uM), 0.8507; in experiment [2] (10 uM), 0.8506; in experiment [2] (20 uM), 0.7376; in experiment [2] (40 uM), 0.7069. Besides, the “CMV-LACZ in Myoblasts, value relative to DMSO” value in experiment [3] (0.5 uM) came to 0.9906; in experiment [3] (1 uM) it was 1.0640; in experiment [3] (5 uM), 0.8366; in experiment [3] (10 uM), 0.6673; in experiment [3] (20 uM), 0.5904; in experiment [3] (40 uM), 0.6670. Further, the “CMV-LACZ in Myotubes, value relative to DMSO” value came to 0.8638 in experiment [4] (0.5 uM); 1.1257 in experiment [4] (1 uM); 0.9388 in experiment [4] (5 uM); 0.9162 in experiment [4] (10 uM); 1.0682 in experiment [4] (20 uM); 1.2059 in experiment [4] (40 uM).
